# Measured values taken from US20260022142A1, “MACROCYCLIC IMMUNOMODULATORS” (Bristol-Myers Squibb Company, priority 2022, published 2026).
# Numbered stars: 1 amine (or outer) side, 2 acyl side, 3 side chain; on linkers, the order of the positions; unused ones are H or OH. Bridge positions count the residues as written; N and C are the ends. Square brackets hold non-standard residues; d marks the D form. Peptide text beside a SMILES is read from it. * marks the point of attachment. ξ: configuration not given here. Phe(3-CF3) = N[C@@H](Cc1cccc(C(F)(F)F)c1)C(=O)O; Phe(4-COOH) = N[C@@H](Cc1ccc(C(=O)O)cc1)C(=O)O; Bip = N[C@@H](Cc1ccc(-c2ccccc2)cc1)C(=O)O; NH(CH2)14COOH = O=C(O)CCCCCCCCCCCCCCN*; Phe(3-Me) = Cc1cccc(C[C@H](N)C(=O)O)c1; γGlu = O=C(O)[C@H](CCC(=O)[*:2])N[*:1]; NH(CH2)12COOH = O=C(O)CCCCCCCCCCCCN*; PEG6 = NCCOCCOCCOCCOCCOCCOCCC(=O)O; Val(3-OH) = CC(C)(O)[C@H](N)C(=O)O; Cha = N[C@@H](CC1CCCCC1)C(=O)O; aThr = C[C@H](O)[C@H](N)C(=O)O; Thr(3ξ) = CC(O)[C@H](N)C(=O)O; PEG4 = NCCOCCOCCOCCOCCC(=O)O; Carboxymethyl = O=C(O)C*; Orn = NCCC[C@H](N)C(=O)O; Dab = NCC[C@H](N)C(=O)O; AEEA = NCCOCCOCC(=O)O
# Biological target: T1, PD-1/PD-L1 interaction (PE-labeled human PD-L1-Ig binding to Jurkat cell line over-expressing human PD-1) (Homo sapiens, UniProt Q15116)
# T1 construct: expressed in transfected cells; host or cells: Jurkat
# T1 sequence (Q15116 25-288): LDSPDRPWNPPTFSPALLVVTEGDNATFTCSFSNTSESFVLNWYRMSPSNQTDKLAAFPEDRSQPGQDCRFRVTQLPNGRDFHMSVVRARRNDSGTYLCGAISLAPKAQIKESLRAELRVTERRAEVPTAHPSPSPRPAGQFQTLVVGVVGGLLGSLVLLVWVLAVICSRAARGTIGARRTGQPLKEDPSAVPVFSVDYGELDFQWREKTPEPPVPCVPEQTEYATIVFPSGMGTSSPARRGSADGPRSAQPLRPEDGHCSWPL
# Experiment: Jurkat-PD-1 Cell Binding High-Content Screening Assay (CBA)
# Assay type: cell-based
# Conditions: Jurkat cell line over-expressing human PD-1; PE-labeled PD-L1-Ig 20 nM final; read-out: Jurkat hPD1-PDL1 IC50
# Method in brief: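 Read-out is high-content imaging of cell-bound phycoerythrin-tagged PD-L1-Ig on fixed, Hoechst-counterstained Jurkat cells that over-express human PD-1. Compound exposure lasts 2 h at 37° C before the labeled ligand (20 nM final) is added for a further hour.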
row,IC50,Structure (SMILES)
1,17.7 nM,Cc1cccc(C[C@@H]2NC(=O)[C@H](CC(=O)O)NC(=O)[C@H](Cc3ccc(OCC(=O)O)cc3)NC(=O)[C@H](C(C)O)NC(=O)CSC[C@@H](C(=O)N[C@@H](CCN)C(=O)NCCOCCOCC(=O)N[C@@H](CCC(=O)NCCOCCOCC(=O)NCCCCCCCCCCCCC(=O)O)C(=O)O)NC(=O)[C@H](CO)NC(=O)[C@H](C(C)(C)O)NC(=O)[C@H](CC3CCCCC3)NC(=O)[C@H](CCN)NC(=O)[C@@H](CC(C)C)NC(=O)[C@H](CCCN)NC(=O)[C@H](Cc3ccc(OCC(=O)O)cc3)NC(=O)[C@H](Cc3ccc(-c4ccccc4)cc3)NC(=O)[C@H](Cc3ccc(OCC(=O)O)cc3)NC2=O)c1 (stereo partly drawn) [Compound 3906] ({CH2CO}-[Thr(3ξ)]Y(Carboxymethyl)D[Phe(3-Me)]Y(Carboxymethyl)[Bip]Y(Carboxymethyl)[Orn][dL][Dab][Cha][Val(3-OH)]SC[Dab][AEEA][γGlu][AEEA]-{NH(CH2)12COOH}; thioether N-14)
2,16.6 nM,Cc1cccc(C[C@@H]2NC(=O)[C@H](CC(=O)O)NC(=O)[C@H](Cc3ccc(OCC(=O)O)cc3)NC(=O)[C@H](C(C)O)NC(=O)CSC[C@@H](C(=O)N[C@@H](CCN)C(=O)NCCOCCOCC(=O)N[C@@H](CCC(=O)NCCOCCOCC(=O)NCCCCCCCCCCCCC(=O)O)C(=O)O)NC(=O)[C@H](CO)NC(=O)[C@H](C(C)(C)O)NC(=O)[C@H](CC3CCCCC3)NC(=O)[C@H](CCN)NC(=O)[C@@H](CC(C)C)NC(=O)[C@H](CCCN)NC(=O)[C@H](Cc3ccc(C(=O)O)cc3)NC(=O)[C@H](Cc3ccc(-c4ccccc4)cc3)NC(=O)[C@H](Cc3ccc(C(=O)O)cc3)NC2=O)c1 (stereo partly drawn) [Compound 3907] ({CH2CO}-[Thr(3ξ)]Y(Carboxymethyl)D[Phe(3-Me)][Phe(4-COOH)][Bip][Phe(4-COOH)][Orn][dL][Dab][Cha][Val(3-OH)]SC[Dab][AEEA][γGlu][AEEA]-{NH(CH2)12COOH}; thioether N-14)
3,125 nM,COC[C@@H]1NC(=O)CSC[C@@H](C(=O)N[C@@H](CCN)C(=O)NCCOCCOCCOCCOCCC(=O)N[C@@H](CCC(=O)N[C@@H](CO)C(=O)NCCCCCCCCCCCCCCC(=O)O)C(=O)O)NC(=O)[C@H](CO)NC(=O)[C@H](C(C)(C)O)NC(=O)[C@H](CC2CCCCC2)NC(=O)[C@H](CCN)NC(=O)[C@@H](CC(C)C)NC(=O)[C@H](CCCN)NC(=O)[C@H](Cc2ccc(C(=O)O)cc2)NC(=O)[C@H](Cc2ccc(-c3ccccc3)cc2)NC(=O)[C@H](Cc2ccc(C(=O)O)cc2)NC(=O)[C@H](Cc2cccc(C(F)(F)F)c2)NC(=O)[C@H](CC(=O)O)NC(=O)[C@H](Cc2ccc(C(=O)O)cc2)NC1=O [Compound 3908] ({CH2CO}-S(Me)[Phe(4-COOH)]D[Phe(3-CF3)][Phe(4-COOH)][Bip][Phe(4-COOH)][Orn][dL][Dab][Cha][Val(3-OH)]SC[Dab][PEG4][γGlu]S-{NH(CH2)14COOH}; thioether N-14)
4,15.7 nM,Cc1cccc(C[C@@H]2NC(=O)[C@H](CC(=O)O)NC(=O)[C@H](Cc3ccc(C(=O)O)cc3)NC(=O)[C@H](CC(C)C)NC(=O)CSC[C@@H](C(=O)N[C@@H](CCN)C(=O)NCCOCCOCCOCCOCCC(=O)NCCCCCCCCCCCCCCC(=O)O)NC(=O)[C@H](CCC(=O)O)NC(=O)[C@H](C(C)C)NC(=O)[C@H](CC3CCCCC3)NC(=O)[C@H](CCN)NC(=O)[C@@H](CC(C)C)NC(=O)[C@H](CCCN)NC(=O)[C@H](Cc3ccc(C(=O)O)cc3)NC(=O)[C@H](Cc3ccc(-c4ccccc4)cc3)NC(=O)[C@H](Cc3ccc(C(=O)O)cc3)NC2=O)c1 [Compound 3909] ({CH2CO}-L[Phe(4-COOH)]D[Phe(3-Me)][Phe(4-COOH)][Bip][Phe(4-COOH)][Orn][dL][Dab][Cha]VEC[Dab][PEG4]-{NH(CH2)14COOH}; thioether N-14)
5,597 nM,CC(C)C[C@@H]1NC(=O)CSC[C@@H](C(=O)N[C@@H](CCN)C(=O)NCCOCCOCCOCCOCCC(=O)NCCCCCCCCCCCCCCC(=O)O)NC(=O)[C@H](CCC(=O)O)NC(=O)[C@H](C(C)C)NC(=O)[C@H](CC2CCCCC2)NC(=O)[C@H](CCN)NC(=O)[C@@H](CC(C)C)NC(=O)[C@H](CCCN)NC(=O)[C@H](Cc2ccc(C(=O)O)cc2)NC(=O)[C@H](Cc2ccc(-c3ccccc3)cc2)NC(=O)[C@H](Cc2ccc(C(=O)O)cc2)NC(=O)[C@H](Cc2cccc(C(F)(F)F)c2)NC(=O)[C@H](CC(=O)O)NC(=O)[C@H](Cc2ccc(C(=O)O)cc2)NC1=O [Compound 3910] ({CH2CO}-L[Phe(4-COOH)]D[Phe(3-CF3)][Phe(4-COOH)][Bip][Phe(4-COOH)][Orn][dL][Dab][Cha]VEC[Dab][PEG4]-{NH(CH2)14COOH}; thioether N-14)
6,90.5 nM,Cc1cccc(C[C@@H]2NC(=O)[C@H](CC(=O)O)NC(=O)[C@H](Cc3ccc(OCC(=O)O)cc3)NC(=O)[C@H]([C@H](C)O)NC(=O)CSC[C@@H](C(=O)N[C@@H](CCN)C(=O)NCCOCCOCCOCCOCCOCCOCCC(=O)NCCCCCCCCCCCCCCC(=O)O)NC(=O)[C@H](CCC(=O)O)NC(=O)[C@H](C(C)C)NC(=O)[C@H](CC3CCCCC3)NC(=O)[C@H](CCN)NC(=O)[C@@H](CC(C)C)NC(=O)[C@H](CCCN)NC(=O)[C@H](Cc3ccc(OCC(=O)O)cc3)NC(=O)[C@H](Cc3ccc(-c4ccccc4)cc3)NC(=O)[C@H](Cc3ccc(C(=O)O)cc3)NC2=O)c1 [Compound 3911] ({CH2CO}-[aThr]Y(Carboxymethyl)D[Phe(3-Me)][Phe(4-COOH)][Bip]Y(Carboxymethyl)[Orn][dL][Dab][Cha]VEC[Dab][PEG6]-{NH(CH2)14COOH}; thioether N-14)
7,252 nM,CC(C)C[C@H]1NC(=O)[C@H](CCCN)NC(=O)[C@H](Cc2ccc(OCC(=O)O)cc2)NC(=O)[C@H](Cc2ccc(-c3ccccc3)cc2)NC(=O)[C@H](Cc2ccc(C(=O)O)cc2)NC(=O)[C@H](Cc2cccc(C(F)(F)F)c2)NC(=O)[C@H](CC(=O)O)NC(=O)[C@H](Cc2ccc(OCC(=O)O)cc2)NC(=O)[C@H]([C@H](C)O)NC(=O)CSC[C@@H](C(=O)N[C@@H](CCN)C(=O)NCCOCCOCCOCCOCCOCCOCCC(=O)NCCCCCCCCCCCCCCC(=O)O)NC(=O)[C@H](CCC(=O)O)NC(=O)[C@H](C(C)C)NC(=O)[C@H](CC2CCCCC2)NC(=O)[C@H](CCN)NC1=O [Compound 3912] ({CH2CO}-[aThr]Y(Carboxymethyl)D[Phe(3-CF3)][Phe(4-COOH)][Bip]Y(Carboxymethyl)[Orn][dL][Dab][Cha]VEC[Dab][PEG6]-{NH(CH2)14COOH}; thioether N-14)
